According to patent US20260231998A1, “COMPOSITIONS FOR MODULATING GUT MICROFLORA POPULATIONS, TREATMENT OF DYSBIOSIS AND DISEASE PREVENTION, AND METHODS FOR MAKING AND USING SAME” (PERSEPHONE BIOSCIENCES, INC., priority 2023, published 2026):

Legend:
[1] = tested on: Bifidobacterium infantis strain PB-STR-093; assay: Antibiotic susceptibility (MIC) of isolated strains, EFSA standards; type: cell-based; details: observed value
Method: In alternative embodiments the complete genome sequence of each organism is screened to ensure it contains no genes or pathogenicity island gene clusters encoding known virulence factors, toxins, or antibiotic resistance functions, using publicly available databases such as DBETH55 (for example, see Chakraborty A, et al. (2012) Nucleic Acids Res. 40:615-620) and VFDB56 (Chen L, et al. (2005) Nucleic Acids Res. 33:325-328). Each organism is evaluated by standard antibiotic sensitivity profile techniques such as broth microdilution susceptibility panels or plate-based methods such as disk diffusion method and antimicrobial gradient method (James H. Jorgensen and Mary Jane Ferraro 2009 Clinical Infectious Diseases 49:1749-1755). Such tests determine the minimal inhibitory concentration (MIC) of an antibiotic on microbial growth. Antibiotics evaluated include but are not limited to amoxicillin, amoxicillin/clavulanic acid, carbapenem, methicillin, ampicillin, gentamicin, metronidazole, vancomycin, and neomycin. MIC determinations of novel microbes are compared to published values for both sensitive and resistant related strains to make an assessment on sensitivity (CLSI Guideline M45: Methods for Antimicrobial Dilution and Disk Susceptibility Testing of Infrequently Isolated or Fastidious Bacteria. Wayne, PA; 2015) to determine possible relative increases in antibiotic resistance.

[2] = tested on: Bifidobacterium infantis strain PB-STR-093; details: expected value based on the EFSA standards; cited from earlier work
[3] = tested on: simulated gut environment; assay: Simulated gut environment: community composition after introduction of bacteria and/or prebiotics (whole genome sequencing); type: cell-based, human; details: B. infantis combined with lacto-N-tetraose (LNT)
Method: The ability of a bacterial addition (representing a probiotic application) to shift the composition of the gut environment was evaluated through the introduction of Bifidobacterium infantis isolate PB-STR-093.
Fifteen different combinations were evaluated covering Bifidobacterium infantis, Bifidobacterium longum, Bifidobacterium breve, and Bifidobacterium bifidum (shown in table 31, where the numerical value for each combination represents the ratio of the microbe in the combination). […] Compositions were also evaluated for their ability to reduce pathogenic species, as well as their metabolic output.

Escherichia coli = assay: Simulated gut environment: levels of potentially pathogenic bacteria; type: cell-based; details: LNT as carbon source together with B. infantis
Method: (§1) To understand the applicability of in vitro observations to the human gut, strains are evaluated in the context of a simulated gut environment. These gut environments are produced with minimal media and seeded with FMT aliquots (Example 2) to reproduce an environment that represents the gut. In these environments, the introduction of prebiotics (in the form of carbon sources, nitrogen sources, and other small molecules) and the introduction of bacteria can be used to shift the community composition, metabolic output, and immunological impact of the gut environments. This allows prebiotic, probiotic, and synbiotic (prebiotic and, probiotic) combinations to be rapidly evaluated to confirm or reject observations determined in simpler systems such as single strain microbial cultures. In subsequent embodiments, machine learning will be used to further reduce the space that must be explored experimentally.

[4] = tested on: Streptococcus vestibularis; assay: as above; type: cell-based; details: LNT as carbon source together with B. infantis
Method: as §1

[5] = Growth (OD600) of isolated microbial strains on medium with different carbon sources; type: cell-based
Method: The growth of isolated strains is evaluated to determine their ability to consume carbon sources and produce specific metabolites. Strains are grown in a minimal media (for example 2 grams (2 ml fine) peptone water (peptone, 10 g/L sodium chloride, 5 g/L), 2 grams yeast extract, 2 grams NaHCO3, 0.1 g NaCl, 0.04 g K2HPO4, 0.04 g KH2PO4, 0.01 g MgSO4·7H2O, 0.01 g CaCl2·6H2O, 2 ml Tween 80, 10 g carbohydrate of choice, 10 μl vitamin K, 0.5 g cysteine, 0.5 g bile salts) that affords control over carbon source. Examples of carbon sources evaluated (independently or in combination) include but are not limited to glucose, lactose, galactose, fructose, xylose, galactooligosaccharides, fructooligosaccharides, xylooligosaccharides, lacto-N-tetraose, lacto-N-neotetraose, 2′-fucosyllactose, 3-fucosyllactose, 3′-sialyllactose, and 6′-sialyllactose. Growth is evaluated by determination of the OD600, which can be performed either on individual samples with a cuvette or tube-based spectrometer (for example the CO 75000™ colorimeter) or on multiple samples in a plate-based format using a plate reader (for example CYTATION 3™). In both cases, values are normalized based on signals from media alone.
Select bacteria were evaluated for their ability to consume different carbon sources to aid in selection of live biotherapeutic (probiotic) bacteria and combinations, mixes and consortia of bacteria as provided herein, and prebiotic combinations (see Table 6) used in compositions and methods as provided herein;

Molecule	Observed Antibiotic MIC [1] [µg/mL]	Expected Antibiotic MIC [2] [µg/mL]	other results
CC1(C)S[C@@H]2[C@H](NC(=O)[C@H](N)c3ccccc3)C(=O)N2[C@H]1C(=O)O [Ampicillin]	2	2	–
O=C(N[C@H](CO)[C@H](O)c1ccc([N+](=O)[O-])cc1)C(Cl)Cl [Chloramphenicol]	4	4	–
CCC[C@@H]1C[C@@H](C(=O)N[C@@H]([C@H]2O[C@H](SC)[C@H](O)[C@@H](O)[C@H]2O)[C@H](C)Cl)N(C)C1 [Clindamycin]	0.125	–	–
CC[C@H]1OC(=O)[C@H](C)[C@@H](O[C@H]2C[C@@](C)(OC)[C@@H](O)[C@H](C)O2)[C@H](C)[C@@H](O[C@@H]2O[C@H](C)C[C@H](N(C)C)[C@H]2O)[C@](C)(O)C[C@@H](C)C(=O)[C@H](C)[C@@H](O)[C@]1(C)O [Erythromycin]	1	1	–
CC(=O)N[C@H]1[C@H](O[C@H]2[C@@H](O)[C@@H](CO)O[C@@H](O[C@H]3[C@H](O)[C@@H](O)C(O)O[C@@H]3CO)[C@@H]2O)O[C@H](CO)[C@@H](O)[C@@H]1O[C@@H]1O[C@H](CO)[C@H](O)[C@H](O)[C@H]1O (some centres unmarked) [LNT, lacto-N-tetraose]	–	–	growth, engraftment and abundance of Bifidobacterium infantis in the sample [3]: further boosts the abundance of Bifidobacterium infantis; level of Escherichia coli in simulated gut environment (Escherichia coli): further reduces the presence of these bacteria; level of Streptococcus vestibularis in simulated gut environment [4]: further reduces the presence of these bacteria
[H]/N=C(/N)N[C@H]1[C@H](O)[C@@H](O)[C@H](O[C@@H]2O[C@@H](C)[C@](O)(C=O)[C@H]2O[C@@H]2O[C@@H](CO)[C@H](O)[C@@H](O)[C@@H]2NC)[C@@H](N/C(N)=N\[H])[C@@H]1O [Streptomycin]	32	128	–
CN(C)[C@@H]1C(O)=C(C(N)=O)C(=O)[C@@]2(O)C(O)=C3C(=O)c4c(O)cccc4[C@@](C)(O)[C@H]3C[C@@H]12 [Tetracycline]	4	–	–
CN[C@H](CC(C)C)C(=O)N[C@H]1C(=O)N[C@@H](CC(N)=O)C(=O)N[C@H]2C(=O)N[C@H]3C(=O)N[C@H](C(=O)N[C@H](C(=O)O)c4cc(O)cc(O)c4-c4cc3ccc4O)[C@H](O)c3ccc(c(Cl)c3)Oc3cc2cc(c3O[C@@H]2O[C@H](CO)[C@@H](O)[C@H](O)[C@H]2O[C@H]2C[C@](C)(N)[C@H](O)[C@H](C)O2)Oc2ccc(cc2Cl)[C@H]1O [Vancomycin]	0.5	2	–
Bacteroides fragilis	–	–	OD(600) after 24 hours growth ([5]; carbon source 2′-FL): 0.261; OD(600) after 24 hours growth ([5]; carbon source 3′-SL): 0.457; OD(600) after 24 hours growth ([5]; carbon source FOS): 0.433; OD(600) after 24 hours growth ([5]; carbon source GOS): 0.325; OD(600) after 24 hours growth ([5]; carbon source Glucose): 0.353; OD(600) after 24 hours growth ([5]; carbon source LNT): 0.337; OD(600) after 24 hours growth ([5]; carbon source Mucin): 0.186; OD(600) after 24 hours growth ([5]; carbon source XOS): 0.359; OD(600) after 24 hours growth ([5]; medium with No Carbohydrate): 0.073
Gentamicin	64	64	–
